Measurements taken from patent publication US20250000783A1, “METHOD FOR HAIR CARE BY USING CASHEW TESTA EXTRACT” (TCI CO., LTD., priority 2023, published 2025).

Key:
[1] = tested on: human hair follicle dermal papilla cells (HFDPC); assay: Antioxidant test for hair follicle cells (ROS, DCFH-DA, flow cytometry, H2O2 stimulation); assay type: cell-based; settings: 0.1 mM compound + 0.5 mM H2O2, read-out: ROS inhibition rate relative to control group G02
Experimental: 1. Cell strains: human hair follicle dermal papilla cells (HFDPC), which are purchased from PromoCell, with a cell number C-12071, and hereinafter referred to as HFDPC cells.
1. HFDPC cells were inoculated into a 6-well culture medium with 2 ml of cell culture medium in each well at the density of 1×10^5 cells, and cultured at 37° C. for 24 h. Therefore, the HFDPC cells were divided into three test groups which were blank group G01, control group G02 and experimental group, respectively.
2. After culture for 24 h, each group was changed as an experimental culture medium. Where, the experimental culture media in blank G01 and control group G02 were cell culture mediums without cashew testa extracts or compounds thereof. Subsequently, each group was treated at 34° C. for 1 h.
3. After treatment for 1 h, a DCFH-DA treatment reagent was added in each group so that the final concentration of each group was 5 μg/mL, and each group was treated at 37° C. for 15 min.
4. After treatment for 15 min, 100 mM of 5 μl/well H2O2 aqueous solution was added, and each group was treated at 34° C. for 0.5 h.
5. The treated experimental culture medium in each group was removed, and washed 2 times with 1× DPBS.
6. After washing, 500 μl of trypsin was added into each well for 5 min of photophobic reaction. After the reaction, the cell culture medium was added to terminate the reaction. After that, suspended cells and cell culture media in each well were collected into corresponding 1.5 ml micro-centrifuge tubes, and centrifuged for 5 min at 400×g to make cells in each centrifuge tube participated.
7. Supernatant in a centrifuge test tube for each group was removed, and the precipitate cells were washed with 1× DPBS once, and then centrifuged for 5 min at 400×g.
The supernatant in a centrifuge test tube for each group was removed again, and 200 μl of 1× DPBS was added into the centrifuge test tube for each group to resuspend the cells so as to form a cell suspension.
8. The excitation light parameter of flow cytometry was set as 450-490 nm, the scattered light parameter of flow cytometry was set as 510-550, and then the fluorescence signal of DCFH-DA in each group was detected by flow cytometry. After entering the HFDPC cells, DCFH-DA was […] into DCFH (dichlorodihydrofluorescein) and then oxidized into DCF (dichlorofluorescein) capable of emitting green fluorescence by reactive oxygen species (ROS), the fluorescence intensity of the HFDPC cells treated by DCFH-DA can reflect the content of ROS in […], so as to obtain the proportion of highly expressed ROS cells in FDPC cells accounting for the number of original cells.
The relative ROS generation amounts of all groups are calculated according to the following formula: ROS relative generation amount (%)=(green fluorescence signal in each group/green fluorescence signal in blank group G01)×100%.
Since the experiment was repeated for three times, the measurement results of experiment that was repeated for three times were averaged as an average value, and then statistically significant differences between rest results of control group G02 and other groups were obtained by student's t-test statistical analysis. In the figures, “*” represents that compared with control group G02, p is less than 0.05, “**” represents that compared with control group G02, p is less than 0.01, and “***” represents that compared with control group G02, p is less than 0.001.
Refer to FIG. 10. The cells in blank group G01 were neither treated with the cashew testa extract, nor stimulated by adding H2O2, and therefore the test results in blank group G01 represent the expression of cells under the condition of normal physiological metabolism, and the relative ROS generation amount of each group is as shown in FIG. 10. […]

[2] = tested on: HFDPC cells; assay: Test for promoting hair follicle cell proliferation (EdU, flow cytometry); assay type: cell-based, human; settings: 0.1 mM compound, 24 h; for relative hair follicle cell proliferation rate: blank group G01 = 100%
Experimental: 1. Assay kit: cell proliferation assay kit (Click-iT™ Plus EdU Flow Cytometry Assay Kits-Alexa Fluor™ 488 picolyl azide, 50 tests), which is purchased from Invitrogen, with a product number C10632.
1. HFDPC cells were inoculated into a 6-well culture medium at the density of 1×10^5 cells/well, and cultured under the conditions of 5% CO2 and 37° C. until 80%-90% of cell fullness were achieved.
2. After culture for 24 h, the content of DNA in each group was measured by using cell proliferation assay kit. Therefore, cells in each group were treated according to test procedures provided by the cell proliferation assay kit, then the excitation light parameter of flow cytometer was set as 450-490 nm, and the scattered light parameter of flow cytometer was set as 510-550 nm, and then EdU (5-ethynyl-2′-deoxyuridine) fluorescent signal of each group was detected by flow cytometer.
The proliferation rate of hair follicle cells in each group was based on the content of DNA in each group. The relative hair follicle cell proliferation rates of all groups are calculated according to the following formula: relative hair follicle cell proliferation rate (%)-(fluorescent signal of each group/fluorescent signal of blank group G01)×100%.
The statistically significant difference between test results of blank group G01 and other groups was obtained by student's t-test statistical analysis. In the figures, “*” represents that compared with blank group G01, p is less than 0.05, “**” represents that compared with blank group G01, p is less than 0.01, and “***” represents that compared with blank group G01, p is less than 0.001.

Structure (SMILES)	inhibition at 100 µM [1]	increase of relative hair follicle cell proliferation rate relative to blank group G01 [2]	relative hair follicle cell proliferation rate [2]	proliferation effect compared with control group G02 (20% fetal bovine serum) [2]
O=C(/C=C/c1ccc(O)cc1)O[C@@H]1Cc2c(O)cc(O)cc2O[C@@H]1c1ccc(O)c(O)c1 [epicatechin coumarin ester, Epicatechin coumarin ester]	100%	about 14.1%	114.1%	–
O=C(/C=C/c1ccc(O)cc1)OC[C@H]1O[C@@H](Oc2cc(O)c3c(c2)OC(c2ccc(O)cc2)CC3=O)[C@H](O)[C@@H](O)[C@@H]1O (stereo partly drawn) [Naringenin 7-O-(6″-O-p-coumaryl)-β-D-glucoside]	75.8%	~25%	125%	superior to that of control group G02
Oc1cc(O)c2c(c1)O[C@H](c1cc(O)c(O)c(O)c1)[C@@H](O)C2 [gallocatechin, Gallocatechin]	90.8%	–	93.5%	–
O=C(O)c1cc(O)c(O)c(O)c1 [gallic acid, Gallic acid]	80%	–	83.7%	–
O=C(O[C@@H]1Cc2c(O)cc(O)cc2O[C@@H]1c1ccc(O)c(O)c1)c1cc(O)c(O)c(O)c1 [epicatechin gallate, Epicatechin gallate]	96.9%	–	89.9%	–
O=C(O)c1ccc(O)c(O)c1 [protocatechuic acid, Protocatechuic acid]	99.4%	~9.6%	109.6%	–
Oc1cc(O)cc(O)c1 [phloroglucinol, Phloroglucinol]	53.9%	~27.9%	127.9%	superior to that of control group G02
